Patent US9896481B2, “Modified mini-hepcidin peptides and methods of using thereof” (priority 2011, dated 2018)
Read-outs that look alike come from different tables or passages of the source. Starred links: 1 amine or outer side, 2 acyl side, 3 side chain; linkers in the order of their positions; H or OH if unused. Positions of bridges follow the written chain, without caps; N, C: chain ends. Non-standard residues stand in square brackets, D forms with d. Residues, ends and D or L forms follow the SMILES beside them. No end group written: not given here. *: point of attachment. PEG12 = NCCOCCOCCOCCOCCOCCOCCOCCOCCOCCOCCOCCOCCC(=O)O; X1 = O=C(C[C@H](N[*:1])C(c1ccccc1)c1ccccc1)[*:2]; dDip = N[C@@H](C(=O)O)C(c1ccccc1)c1ccccc1; Oic = O=C(O)[C@@H]1C[C@@H]2CCCC[C@@H]2N1; Dip = N[C@H](C(=O)O)C(c1ccccc1)c1ccccc1; Palmitoyl = CCCCCCCCCCCCCCCC(=O)*; X2 = O=C(C1CCC(CN[*:1])CC1)[*:2]; Cysteamide = C(CS[*:3])N[*:1]; Chg = N[C@H](C(=O)O)C1CCCCC1; Phg = N[C@H](C(=O)O)c1ccccc1; Tle = CC(C)(C)[C@H](N)C(=O)O; Inp = O=C(O)C1CCNCC1

Biological target: T1, ferroportin tagged at the C-terminus with green fluorescent protein (Fpn-GFP) (Mus musculus, UniProt Q9JHI9)
T1 construct: expressed in transfected cells; host or cells: ECR293/Fpn-GFP (stably transfected, ponasterone-inducible)
T1 sequence (Q9JHI9 1-570): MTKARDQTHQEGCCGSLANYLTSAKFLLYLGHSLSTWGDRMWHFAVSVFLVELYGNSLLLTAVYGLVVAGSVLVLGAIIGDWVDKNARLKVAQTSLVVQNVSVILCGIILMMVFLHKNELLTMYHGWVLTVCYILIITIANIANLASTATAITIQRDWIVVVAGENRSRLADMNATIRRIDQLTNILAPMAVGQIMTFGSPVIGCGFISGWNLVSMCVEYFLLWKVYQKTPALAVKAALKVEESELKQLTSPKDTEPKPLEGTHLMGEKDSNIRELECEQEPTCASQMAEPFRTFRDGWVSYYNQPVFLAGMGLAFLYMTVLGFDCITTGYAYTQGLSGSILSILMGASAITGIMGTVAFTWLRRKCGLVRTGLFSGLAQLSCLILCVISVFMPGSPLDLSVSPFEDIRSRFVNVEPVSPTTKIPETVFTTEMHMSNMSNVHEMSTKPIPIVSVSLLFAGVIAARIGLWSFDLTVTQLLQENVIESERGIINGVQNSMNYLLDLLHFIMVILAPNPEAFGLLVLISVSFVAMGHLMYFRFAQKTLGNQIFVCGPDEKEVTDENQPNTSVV
Assay: Flow cytometry of ferroportin-GFP degradation in ECR293/Fpn-GFP cells
Format: cell-based
Settings: for DC50: read-out: EC50 (the source's name)
Experimental: In vitro activity may be measured by the dose-dependent loss of fluorescence of cells engineered to display ferroportin fused to green fluorescent protein as in Nemeth et al. (2006) Blood 107:328-33. Aliquots of cells are incubated for 24 hours with graded concentrations of a reference preparation of Hep25 or a mini-hepcidin. As provided herein, the EC50 values are provided as the concentration of a given compound (e.g. peptide) that elicits 50% of the maximal loss of fluorescence generated by the reference Hep25 preparation.
Mutational studies indicate that C326, the cysteine residue at position 326 of human ferroportin, is the critical residue involved in binding hepcidin. Thus, various N-terminal fragments of Hep25 containing a thiol, i.e. Hep 4-7, Hep3-7, Hep3-8, Hep3-9, Hep1-7, Hep1-8, Hep1-9, and Hep1-10 C7A, were chemically synthesized, refolded and their activities relative to Hep25 were assayed using flow-cytometric quantitation of the ferroportin-GFP degradation, iron efflux estimation based on measurements of cellular ferritin, and radioisotopic iron efflux studies.
The activity of peptides of the present invention was measured by flow cytometry as previously described. See Nemeth et al. (2006) Blood 107:328-333, which is herein incorporated by reference. ECR293/Fpn-GFP, a cell line stably transfected with a ponasterone-inducible ferroportin construct tagged at the C-terminus with green fluorescent protein was used. See Nemeth et al. (2004) Science 306:2090-2093, which is herein incorporated by reference. Briefly, the cells were plated on poly-D-lysine coated plates in the presence of 20 μM FAC, with or without 10 μM ponasterone. After 24 hours, ponasterone was washed off, and cells were treated with peptides for 24 hours. Cells were then trypsinized and resuspended at 1×10^6 cells/ml, and the intensity of green fluorescence was analyzed by flow cytometry. Flow cytometry was performed on FAC SCAN (fluorescence activated cell scanner) Analytic Flow Cytometer (Becton Dickinson, San Jose, Calif.) with […] version 3.3 software (Becton Dickinson). Cells not induced with ponasterone to express Fpn-GFP were used to establish a gate to exclude background fluorescence. Cells induced with ponasterone, but not treated with any peptides, were used as the positive control. Each peptide was tested over the range of concentrations (0, 0.01, 0.03, 0.1, 0.3, 1, 3 and 10 μM). Each peptide treatment was repeated independently 3 to 6 times. For each concentration of peptide, the results were expressed as a fraction of the maximal activity (FHep25) of Hep25 (in the dose range 0.01-10 μM), according to the formula 1−((Fx−FHep25)/(Funtreated−FHep25)), where F was the mean of the gated green fluorescence and x was the peptide.

[1] = read-out: EC50 (nM) in vitro, Table 3
[2] = Table 1, 24 h peptide treatment, 50% of maximal loss of fluorescence by Hep25, read-out: EC50
[3] = ferroportin-GFP internalization, FIG. 3
[4] = Table 1, 24 h peptide treatment, 50% of maximal loss of fluorescence by Hep25

CCCCCCCCCCCCCCCC(=O)NCCOCCOCCOCCOCCOCCOCCOCCOCCOCCOCCOCCOCCC(=O)N[C@@H](C(=O)N[C@@H](C(=O)N[C@H](CS)C(=O)N[C@@H](C(=O)N1CCC[C@@H]1C(=O)N[C@@H](C(=O)N[C@H](Cc1c[nH]cn1)C(N)=O)C(c1ccccc1)c1ccccc1)[C@H](C)CC)[C@H](C)CC)C(c1ccccc1)c1ccccc1 [PR50, R4-Dpa-I-C-I-P-Dpa-H] ({Palmitoyl-PEG12}-[dDip][dI][dC][dI][dP][dDip][dH]-NH2) was tested. Which EC50 [1] did it give?
The EC50 was less than 10 nM.

How did the EC50 [2] turn out when C[C@@H](O)[C@H](NC(=O)[C@@H](N)CC(=O)O)C(=O)N[C@@H](Cc1c[nH]cn1)C(=O)N[C@H](C(=O)N1CCC[C@H]1C(=O)N[C@@H](CS)C(=O)N[C@@H](CS)C(=O)N[C@@H](CS)C(=O)N[C@H](C(N)=O)C(c1ccccc1)c1ccccc1)C(c1ccccc1)c1ccccc1 [PR46] (H-DTH[Dip]PCCC[Dip]-NH2; N-terminus assumed) was run?
Its EC50 is 80 nM.

How did the EC50 [1] turn out when CCCCCCCCCCCCCCCC(=O)NCCOCCOCCOCCOCCOCCOCCOCCOCCOCCOCCOCCOCCC(=O)N[C@H](Cc1ccccc1)C(=O)N[C@H](CC(C)C)C(=O)N[C@H](CS)C(=O)N[C@H](CC(C)C)C(=O)N1CCC[C@@H]1C(=O)N[C@@H](C(=O)N[C@H](Cc1c[nH]cn1)C(=O)N[C@@H](C(=O)N[C@H](CC(=O)O)C(N)=O)[C@H](C)O)C(c1ccccc1)c1ccccc1 [PR52, R4-F-L-C-L-P-Dpa-H-T-D] ({Palmitoyl-PEG12}-[dF][dL][dC][dL][dP][dDip][dH][dT][dD]-NH2) was run?
Its EC50 is less than 10 nM.

What does the source list for DTHFPIAIFC-NH2 [Hep10]?
hepcidin activity relative to Hep25 (in words) (FIGS. 1-4): quite active; potency relative to Hep25 on a mass basis, times less potent [3]: about 4 times; potency relative to Hep25 on a molar basis, times less potent [3]: about 10 times

CC(C)(C)[C@H](NC(=O)[C@@H](N)CC(=O)O)C(=O)N[C@@H](Cc1c[nH]cn1)C(=O)N[C@H](C(=O)N1[C@H](C(=O)N[C@H](C(=O)N[C@@H](CS)C(=O)N[C@H](C(=O)N[C@@H](Cc2ccccc2)C(N)=O)C2CCCCC2)C2CCCCC2)C[C@@H]2CCCC[C@@H]21)c1ccccc1 [PR10] (H-D[Tle]H[Phg][Oic][Chg]C[Chg]F-NH2) was tested. Which DC50 [4] did it give?
The DC50 was greater than 3000 nM.

For CCCCCCCCCCCCCCCC(=O)NCCOCCOCCOCCOCCOCCOCCOCCOCCOCCOCCOCCOCCC(=O)N[C@H](Cc1ccccc1)C(=O)N[C@@H](C(=O)N[C@H](CS)C(=O)N[C@@H](C(=O)N1CCC[C@@H]1C(=O)N[C@@H](C(=O)N[C@H](Cc1c[nH]cn1)C(N)=O)C(c1ccccc1)c1ccccc1)[C@H](C)CC)[C@H](C)CC [PR49, R4-F-I-C-I-P-Dpa-H] ({Palmitoyl-PEG12}-[dF][dI][dC][dI][dP][dDip][dH]-NH2), which EC50 [1] is on record?
Its EC50 is less than 10 nM.

For CC[C@H](C)[C@H](NC(=O)[C@H](CS)NC(=O)[C@@H](NC(=O)[C@@H]1CCCN1C(=O)C[C@H](NC(=O)[C@H](Cc1c[nH]cn1)NC(=O)[C@@H](NC(=O)[C@@H](N)CC(=O)O)[C@@H](C)O)C(c1ccccc1)c1ccccc1)[C@@H](C)CC)C(=O)N[C@@H](Cc1ccccc1)C(N)=O [F4bhDpa] (H-DTH[X1]PICIF-NH2; N-terminus assumed), which DC50 [4] is on record?
The DC50 was 80 nM.

With CC(C)(C)[C@H](NC(=O)[C@@H](N)CC(=O)O)C(=O)N[C@@H](Cc1c[nH]cn1)C(=O)N1CCC[C@H]1C(=O)N1[C@H](C(=O)N[C@H](C(=O)N[C@@H](CS)C(=O)N[C@H](C(=O)N[C@@H](Cc2ccccc2)C(N)=O)C2CCCCC2)C2CCCCC2)C[C@@H]2CCCC[C@@H]21 [PR11] (H-D[Tle]HP[Oic][Chg]C[Chg]F-NH2) as the compound, how does the DC50 [4] read?
Its DC50 is greater than 3000 nM.

CCCCCCCCCCCCCCCC(=O)NCCOCCOCCOCCOCCOCCOCCOCCOCCOCCOCCOCCOCCC(=O)N[C@H](Cc1ccccc1)C(=O)N[C@@H](C(=O)N[C@H](CS)C(=O)N[C@@H](C(=O)N1CCC[C@@H]1C(=O)N[C@@H](C(=O)N[C@H](Cc1c[nH]cn1)C(=O)N[C@@H](C(=O)N[C@H](CC(=O)O)C(N)=O)[C@H](C)O)C(c1ccccc1)c1ccccc1)C(C)C)C(C)C [PR51, R4-F-V-C-V-P-Dpa-H-T-D] ({Palmitoyl-PEG12}-[dF][dV][dC][dV][dP][dDip][dH][dT][dD]-NH2) was tested. Which EC50 [1] did it give?
The EC50 was 100 nM.

With N=C(N)NCCC[C@@H]1NC(=O)C2CCC(CC2)CNC(=O)[C@@H](C(c2ccccc2)c2ccccc2)NC(=O)C2CCN(CC2)C(=O)[C@@H](N)CSSCCNC(=O)[C@H](C(c2ccccc2)c2ccccc2)NC(=O)C2CCN(CC2)C(=O)C2CCC(CC2)CNC1=O [PR-1] as the compound, how does the EC50 (read-out: EC50) read?
The EC50 was 1500 nM.

N=C(N)NCCC[C@@H]1NC(=O)C2CCC(CC2)CNC(=O)[C@@H](C(c2ccccc2)c2ccccc2)NC(=O)[C@@H]2CCCN2C(=O)[C@@H](N)CSSCCNC(=O)[C@H](C(c2ccccc2)c2ccccc2)NC(=O)C2CCN(CC2)C(=O)C2CCC(CC2)CNC1=O [PR-2] (H-CP[dDip][X2]R[X2][Inp][Dip]-Cysteamide; disulfide 1-C) was tested. Which EC50 (read-out: EC50) did it give?
Its EC50 is 2000 nM.

CCCCCCCCCCCCCCCC(=O)NCCOCCOCCOCCOCCOCCOCCOCCOCCOCCOCCOCCOCCC(=O)N[C@H](Cc1ccccc1)C(=O)N[C@@H](C(=O)N[C@H](CS)C(=O)N[C@@H](C(=O)N1CCC[C@@H]1C(=O)N[C@@H](C(=O)N[C@H](Cc1c[nH]cn1)C(=O)N[C@@H](C(=O)N[C@H](CC(=O)O)C(N)=O)[C@H](C)O)C(c1ccccc1)c1ccccc1)[C@H](C)CC)[C@H](C)CC [PR47, R4-F-I-C-I-P-Dpa-H-T-D] ({Palmitoyl-PEG12}-[dF][dI][dC][dI][dP][dDip][dH][dT][dD]-NH2) was tested. Which EC50 [1] did it give?
The EC50 was 50 nM.

With N=C(N)NCCC[C@@H]1NC(=O)C2CCC(CC2)CNC(=O)[C@@H](C(c2ccccc2)c2ccccc2)NC(=O)CNC(=O)[C@@H](N)CSSCCNC(=O)[C@H](C(c2ccccc2)c2ccccc2)NC(=O)C2CCN(CC2)C(=O)C2CCC(CC2)CNC1=O [PR-4] (H-CG[dDip][X2]R[X2][Inp][Dip]-Cysteamide; disulfide 1-C) as the compound, how does the EC50 (read-out: EC50) read?
Its EC50 is 2000 nM.

How did the EC50 (read-out: EC50, Table 1, 24 h peptide treatment, 50% of maximal loss of fluorescence by Hep25) turn out when CC[C@H](C)[C@H](NC(=O)[C@H](CS)NC(=O)[C@@H](NC(=O)[C@@H]1CCCN1C(=O)[C@@H](NC(=O)[C@@H](N)CC(=O)O)C(c1ccccc1)c1ccccc1)[C@@H](C)CC)C(=O)N[C@@H](Cc1ccccc1)C(N)=O [PR40] (H-D[Dip]PICIF-NH2) was run?
The EC50 was 70 nM.

Which EC50 [2] does the source give for CC[C@H](C)[C@H](NC(=O)[C@@H]1CSSC[C@H](N)C(=O)N[C@@H](CC(=O)O)C(=O)N[C@@H]([C@@H](C)O)C(=O)N[C@@H](Cc2c[nH]cn2)C(=O)N[C@@H](Cc2ccccc2)C(=O)N2CCC[C@H]2C(=O)N[C@@H]([C@@H](C)CC)C(=O)N1)C(=O)N[C@@H](Cc1ccccc1)C(N)=O [Cyc-1] (H-CDTHFPICIF-NH2; disulfide 1-8; N-terminus assumed) here?
The EC50 was 300 nM.

CCCCCCCCCCCCCCCC(=O)NCCOCCOCCOCCOCCOCCOCCOCCOCCOCCOCCOCCOCCC(=O)N[C@@H](C(=O)N[C@@H](C(=O)N[C@H](CS)C(=O)N[C@@H](C(=O)N1CCC[C@@H]1C(=O)N[C@@H](C(=O)N[C@H](Cc1c[nH]cn1)C(=O)N[C@@H](C(=O)N[C@H](CC(=O)O)C(N)=O)[C@H](C)O)C(c1ccccc1)c1ccccc1)[C@H](C)CC)[C@H](C)CC)C(c1ccccc1)c1ccccc1 [PR48, R4-Dpa-I-C-I-P-Dpa-H-T-D] ({Palmitoyl-PEG12}-[dDip][dI][dC][dI][dP][dDip][dH][dT][dD]-NH2) was tested. Which EC50 [1] did it give?
The EC50 was 50 nM.
